The values that follow come from ChEMBL document CHEMBL1781910, “Design, synthesis, and characterization of piperazinedione-based dual protein inhibitors for both farnesyltransferase and geranylgeranyltransferase-I” (Eur J Med Chem, 2011).

The structures appear in SMILES notation. Activity calls are given as the source filed them. No cut-off for these calls is given here.

Test [1] is described as follows: Inhibition of rat FTase using farnesylpyrophosphate and dansyl-GCVLS as substrate preincubated for 5 mins measured after 15 mins by fluorescence assay.
The nature of test [2]: Inhibition of rat GGTase-1 using geranylgeranyl-pyrophosphate and dansyl-GCVLL as substrate preincubated for 5 mins measured after 15 mins by fluorescence assay.
The species named for test [3] is Rattus norvegicus. Nature of the test: Bisubstrate inhibition of rat FTase at 20 to 40 nM using farnesylpyrophosphate and dansyl-GCVLS as substrate by double-reciprocal plot analysis.
Test [4] is filed under the species Rattus norvegicus. Nature of the test: Bisubstrate inhibition of rat GGTase-1 at 20 to 40 nM using geranylgeranyl-pyrophosphate and dansyl-GCVLL as substrate by double-reciprocal plot analysis.

On to `CC(C)C[C@H]1C(=O)NCC(=O)N1Cc1ccco1`, for which the IC50 in test [1] stood at 476 nM; in test [2], 3880 nM.
The corresponding values for `COc1ccc(CN2C(=O)CNC(=O)[C@@H]2C(C)C)cc1` are 774 nM and 3820 nM.
In the same order, the values of `O=C1NCC(=O)N(Cc2ccco2)[C@H]1CSCc1ccccc1` are 68.9 nM and 270 nM.
For the compound `O=C1NCC(=O)N(Cc2ccc(N3CCOCC3)cc2)[C@H]1Cc1c[nH]c2ccccc12`, the IC50 in test [1] is 225 nM; in test [2] it was 123 nM.
In the same order, the values of `O=C1NCC(=O)N(Cc2ccc(Cl)cc2)[C@@H]1Cc1c[nH]c2ccccc12` are 33.1 nM and 170 nM.
In the same order, the values of `COc1ccc(CN2C(=O)CNC(=O)[C@H]2C(C)C)cc1` are 479 nM and 1700 nM.
Take `COc1ccc(C[C@@H]2C(=O)NCC(=O)N2Cc2ccco2)cc1`: the figures for the IC50 in test [1] and in test [2] were 118 nM and 410 nM, respectively.
The corresponding values for `O=C1NCC(=O)N(Cc2ccc(Oc3cccc(Cl)c3)cc2)[C@H]1Cc1c[nH]c2ccccc12` are 26.5 nM and 96.5 nM.
On to `CSCC[C@@H]1C(=O)NCC(=O)N1Cc1ccco1`, for which the half-maximal inhibitory concentration (IC50) in test [1] came to 121 nM; in test [2] it was 730 nM.
In the same order, the values of `COc1ccc(CN2C(=O)CNC(=O)[C@@H]2Cc2c[nH]cn2)cc1` are 107 nM and 590 nM.
In the same order, the values of `COc1ccc(C[C@@H]2C(=O)NCC(=O)N2Cc2ccc(OC)cc2)cc1` are 129 nM and 380 nM.
The corresponding values for `O=C1NCC(=O)N(Cc2ccc(Oc3ccc(Cl)c(Cl)c3)cc2)[C@H]1Cc1c[nH]c2ccccc12` are 22.3 nM and 92.3 nM.
As to `O=C1NCC(=O)N(Cc2ccco2)[C@H]1Cc1c[nH]cn1`, the results for the 50% inhibitory concentration (IC50) in test [1] and in test [2] were 97.2 nM and 980 nM, respectively.
Take `O=C1NCC(=O)N(Cc2ccc(Oc3ccc(Cl)c(Cl)c3)cc2)[C@@H]1Cc1c[nH]c2ccccc12`: the half-maximal inhibitory concentration (IC50) in test [1] is 13.1 nM; in test [2] it was 21 nM. The inhibition result in the test filed under Rattus norvegicus [3] and in the test listed under Rattus norvegicus [4] was “Active” in each case.
With `O=C1NCC(=O)N(Cc2ccc(Br)cc2)[C@H]1Cc1c[nH]c2ccccc12`, the IC50 is 41.7 nM in test [1] and 630 nM in test [2].
With `C[C@H]1C(=O)NCC(=O)N1Cc1ccco1`, the concentration for half-maximal inhibition (IC50) in test [1] amounted to 1560 nM; in test [2] it was 5220 nM.
In the same order, the values of `O=C1NCC(=O)N(Cc2ccco2)[C@@H]1Cc1c[nH]cn1` are 70.6 nM and 350 nM.
As for `COc1c(Cl)cc(Cl)cc1CN1C(=O)CNC(=O)[C@H]1Cc1c[nH]c2ccccc12`, the 50% inhibitory concentration (IC50) amounted to 22.1 nM in test [1] and 78.2 nM in test [2].
`COc1ccc(CN2C(=O)CNC(=O)[C@H]2CC(C)C)cc1`: the 50% inhibitory concentration (IC50) in test [1] was found to be 346 nM; in test [2], 1200 nM.
The corresponding values for `COc1ccc(CN2C(=O)CNC(=O)[C@@H]2CCSC)cc1` are 190 nM and 700 nM.
The corresponding values for `CC(C)[C@H]1C(=O)NCC(=O)N1Cc1ccco1` are 541 nM and 3200 nM.
Consider `COc1ccc(C[C@H]2C(=O)NCC(=O)N2Cc2ccco2)cc1`, for which the results for the half-maximal inhibitory concentration (IC50) in test [1] and in test [2] were 234 nM and 1050 nM, respectively.
In the same order, the values of `O=C1NCC(=O)N(Cc2ccc(F)cc2)[C@@H]1Cc1c[nH]c2ccccc12` are 44.7 nM and 480 nM.
On to `COc1ccc(C[C@H]2C(=O)NCC(=O)N2Cc2ccc(OC)cc2)cc1`, for which the figures for the half-inhibitory concentration (IC50) in test [1] and in test [2] were 188 nM and 880 nM, respectively.
On to `COc1ccc(CN2C(=O)CNC(=O)[C@@H]2CC(C)C)cc1`, for which the IC50 is 582 nM in test [1] and 3920 nM in test [2].
In the same order, the values of `COc1ccc(CN2C(=O)CNC(=O)[C@H]2CSCc2ccccc2)cc1` are 70.7 nM and 470 nM.
Take `O=C1NCC(=O)N(Cc2ccc(Cl)cc2)[C@H]1Cc1c[nH]c2ccccc12`: the figures for the IC50 in test [1] and in test [2] were 42 nM and 520 nM, respectively.
With `COc1ccc(CN2C(=O)CNC(=O)[C@H]2Cc2c[nH]cn2)cc1`, the 50% inhibitory concentration (IC50) came out at 78.5 nM in test [1] and 180 nM in test [2].
The corresponding values for `CC(C)C[C@@H]1C(=O)NCC(=O)N1Cc1ccco1` are 421 nM and 1660 nM.
For the compound `COc1c(Cl)cc(Cl)cc1CN1C(=O)CNC(=O)[C@@H]1Cc1c[nH]c2ccccc12`, the figures for the IC50 in test [1] and in test [2] were 34 nM and 219 nM, respectively.
The corresponding values for `COc1ccc(CN2C(=O)CNC(=O)[C@H]2CCSC)cc1` are 109 nM and 320 nM.
Turning to `O=C1NCC(=O)N(Cc2ccc(F)cc2)[C@H]1Cc1c[nH]c2ccccc12`, the IC50 was determined as 78.2 nM in test [1] and 770 nM in test [2].
Take `COc1ccc(CN2C(=O)CNC(=O)[C@@H]2Cc2ccccc2)cc1`: the half-maximal inhibitory concentration (IC50) in test [1] came out at 183 nM; in test [2] it was 1960 nM.
The corresponding values for `O=C1NCC(=O)N(Cc2ccc(N3CCOCC3)cc2)[C@@H]1Cc1c[nH]c2ccccc12` are 132 nM and 88.1 nM.
In the same order, the values of `O=C1NCC(=O)N(Cc2ccc(Oc3cccc(Cl)c3)cc2)[C@@H]1Cc1c[nH]c2ccccc12` are 17.8 nM and 32.3 nM.
The corresponding values for `CC(C)[C@@H]1C(=O)NCC(=O)N1Cc1ccco1` are 346 nM and 1920 nM.
In the case of `COc1ccc(CN2C(=O)CNC(=O)[C@H]2Cc2ccccc2)cc1`, the IC50 turned out to be 142 nM in test [1] and 460 nM in test [2].
With `COc1ccc(CN2C(=O)CNC(=O)[C@@H]2C)cc1`, the IC50 in test [1] was found to be 1100 nM; in test [2], 5210 nM.
In the same order, the values of `N#Cc1ccc(CN2C(=O)CNC(=O)[C@H]2Cc2c[nH]c3ccccc23)cc1` are 38.7 nM and 130 nM.
The corresponding values for `COc1ccc(CN2C(=O)CNC(=O)[C@@H]2CSCc2ccccc2)cc1` are 45.1 nM and 160 nM.
The corresponding values for `O=C1NCC(=O)N(Cc2ccco2)[C@H]1Cc1c[nH]c2ccccc12` are 72.1 nM and 790 nM.
In the case of `COc1ccc(CN2C(=O)CNC(=O)[C@H]2C)cc1`, the IC50 in test [1] is 621 nM; in test [2], 2830 nM.
In the case of `O=C1NCC(=O)N(Cc2ccco2)[C@@H]1CSCc1ccccc1`, the figures for the 50% inhibitory concentration (IC50) in test [1] and in test [2] were 99.1 nM and 760 nM, respectively.
The corresponding values for `COc1ccc(CN2C(=O)CNC(=O)[C@@H]2Cc2c[nH]c3ccccc23)cc1` are 58.8 nM and 520 nM.
The corresponding values for `C[C@@H]1C(=O)NCC(=O)N1Cc1ccco1` are 971 nM and 3830 nM.
As for `O=C1NCC(=O)N(Cc2ccc(Br)cc2)[C@@H]1Cc1c[nH]c2ccccc12`, the half-inhibitory concentration (IC50) in test [1] is 29.8 nM; in test [2], 120 nM.
For the compound `COc1ccc(CN2C(=O)CNC(=O)[C@H]2Cc2c[nH]c3ccccc23)cc1`, the figures for the IC50 in test [1] and in test [2] were 39.8 nM and 150 nM, respectively.
`CSCC[C@H]1C(=O)NCC(=O)N1Cc1ccco1`: the IC50 was determined as 189 nM in test [1] and 1890 nM in test [2].
For `O=C1NCC(=O)N(Cc2ccco2)[C@H]1Cc1ccccc1`, the figures for the 50% inhibitory concentration (IC50) in test [1] and in test [2] were 160 nM and 1820 nM, respectively.
The corresponding values for `N#Cc1ccc(CN2C(=O)CNC(=O)[C@@H]2Cc2c[nH]c3ccccc23)cc1` are 43.2 nM and 320 nM.
In the same order, the values of `O=C1NCC(=O)N(Cc2ccco2)[C@@H]1Cc1c[nH]c2ccccc12` are 52.4 nM and 220 nM.
In the same order, the values of `O=C1NCC(=O)N(Cc2ccco2)[C@@H]1Cc1ccccc1` are 177 nM and 620 nM.

What is called IC50 is the midpoint of a concentration-inhibition curve. A lower IC50 goes with greater potency in that assay.
